Results published in ChEMBL document CHEMBL1201862, “PubChem BioAssay data set” (2004).
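Protocol summary: plate cells (96-well), add compound at 5 concentrations, incubate 48 h, interpolate endpoints linearly. At the GI50, growth is halved.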 Activity calls are given as the source filed them. No stated cut-off is given here; in the data, active = GI50 up to about 1.1 µM and inactive = higher.

Assays:
Assay in all cases: NCI-60 cell line screen, 48 h
[1] = system: SK-MEL-5
[2] = system: SK-MEL-2
[3] = system: SF-268
[4] = system: OVCAR-4
[5] = system: LOX IMVI
[6] = system: A549
[7] = system: UO-31
[8] = system: NCI-H460
[9] = system: COLO 205
[10] = system: M14
[11] = system: 786-0
[12] = system: NCI-H226
[13] = system: OVCAR-8
[14] = system: CAKI-1
[15] = system: SN12C
[16] = system: HOP-18
[17] = system: SF-295
[18] = system: NCI-H23
[19] = system: RXF 393
[20] = system: UACC-257
[21] = system: EKVX
[22] = system: HT-29
[23] = system: NCI-H522
[24] = system: SNB-75
[25] = system: SK-OV-3
[26] = system: K562
[27] = system: SNB-19
[28] = system: U-251
[29] = system: KM12
[30] = system: IGROV-1
[31] = system: SR
[32] = system: HCT-116
[33] = system: A498
[34] = system: DMS-114
[35] = system: Malme-3M
[36] = system: CCRF-CEM
[37] = system: RXF 631
[38] = system: MOLT-4
[39] = system: OVCAR-3
[40] = system: M19-MEL
[41] = system: DLD-1
[42] = system: SW-620
[43] = system: HCC 2998
[44] = system: SNB-78
[45] = system: OVCAR-5
[46] = system: HL-60
[47] = system: HOP-92
[48] = system: XF498
[49] = system: ACHN
[50] = system: HOP-62
[51] = system: UACC-62
[52] = system: HCT-15
[53] = system: SF-539
[54] = system: LXFL 529
[55] = system: RPMI-8226
[56] = system: TK-10
[57] = system: KM-20L2
[58] = system: SK-MEL-28
[59] = system: DMS-273

COc1ccc(/C=C(\NC(=O)c2ccccc2)c2nc3ccccc3[nH]2)cc1OC
GI50 [1]: > 100 µM (inactive)
GI50 [2]: > 100 µM (inactive)
GI50 [3]: > 100 µM (inactive)
GI50 [4]: > 100 µM (inactive)
GI50 [5]: > 100 µM (inactive)
GI50 [6]: > 100 µM (inactive)
GI50 [7]: 99.3 µM (inactive)
GI50 [8]: > 100 µM (inactive)
GI50 [9]: > 100 µM (inactive)
GI50 [10]: > 100 µM (inactive)
GI50 [11]: > 100 µM (inactive)
GI50 [12]: > 100 µM (inactive)
GI50 [13]: > 100 µM (inactive)
GI50 [14]: > 100 µM (inactive)
GI50 [15]: > 100 µM (inactive)
GI50 [16]: > 100 µM (inactive)
GI50 [17]: > 100 µM (inactive)
GI50 [18]: > 100 µM (inactive)
GI50 [19]: > 100 µM (inactive)
GI50 [20]: > 100 µM (inactive)
GI50 [21]: > 100 µM (inactive)
GI50 [22]: > 100 µM (inactive)
GI50 [23]: > 100 µM (inactive)
GI50 [24]: > 100 µM (inactive)
GI50 [25]: > 100 µM (inactive)
GI50 [26]: > 100 µM (inactive)
GI50 [27]: > 100 µM (inactive)
GI50 [28]: > 100 µM (inactive)
GI50 [29]: > 100 µM (inactive)
GI50 [30]: > 100 µM (inactive)
GI50 [31]: > 100 µM (inactive)
GI50 [32]: > 100 µM (inactive)
GI50 [33]: > 100 µM (inactive)
GI50 [34]: > 100 µM (inactive)
GI50 [35]: > 100 µM (inactive)
GI50 [36]: 85.9 µM (inactive)
GI50 [37]: > 100 µM (inactive)
GI50 [38]: 79.1 µM (inactive)
GI50 [39]: > 100 µM (inactive)
GI50 [40]: > 100 µM (inactive)
GI50 [41]: > 100 µM (inactive)
GI50 [42]: > 100 µM (inactive)
GI50 [43]: > 100 µM (inactive)
GI50 [44]: > 100 µM (inactive)
GI50 [45]: > 100 µM (inactive)
GI50 [46]: > 100 µM (inactive)
GI50 [47]: > 100 µM (inactive)
GI50 [48]: > 100 µM (inactive)
GI50 [49]: > 100 µM (inactive)
GI50 [50]: > 100 µM (inactive)
GI50 [51]: > 100 µM (inactive)
GI50 [52]: > 100 µM
GI50 [53]: > 100 µM (inactive)
GI50 [54]: 76 µM (inactive)
GI50 [55]: 80.5 µM (inactive)
GI50 [56]: > 100 µM (inactive)
GI50 [57]: > 100 µM (inactive)
GI50 [58]: > 100 µM (inactive)

Cc1cc(C)c(-c2noc(-c3ccc(Cl)cc3)c2C2=NCCCN2)c(C)c1
GI50 [1]: 10.4 µM (inactive)
GI50 [2]: 20.9 µM (inactive)
GI50 [3]: 11.3 µM (inactive)
GI50 [4]: 97.1 µM (inactive)
GI50 [5]: 16.2 µM (inactive)
GI50 [6]: 24 µM (inactive)
GI50 [7]: 16.2 µM (inactive)
GI50 [8]: 11.7 µM (inactive)
GI50 [9]: 13.8 µM (inactive)
GI50 [10]: 2.47 µM (inactive)
GI50 [11]: 7.45 µM (inactive)
GI50 [12]: 29.9 µM (inactive)
GI50 [13]: 26.7 µM (inactive)
GI50 [14]: > 100 µM (inactive)
GI50 [15]: 19.1 µM (inactive)
GI50 [16]: 27.9 µM (inactive)
GI50 [17]: 11.2 µM (inactive)
GI50 [18]: 17.9 µM (inactive)
GI50 [19]: 7.1 µM (inactive)
GI50 [20]: 15.1 µM (inactive)
GI50 [21]: 18 µM (inactive)
GI50 [22]: 13.5 µM (inactive)
GI50 [23]: 20 µM (inactive)
GI50 [25]: 18.4 µM (inactive)
GI50 [26]: 14.8 µM (inactive)
GI50 [27]: 21.3 µM (inactive)
GI50 [28]: 7.57 µM (inactive)
GI50 [29]: 23 µM (inactive)
GI50 [30]: 32.1 µM (inactive)
GI50 [31]: 26.5 µM (inactive)
GI50 [32]: 4.57 µM (inactive)
GI50 [35]: 19.4 µM (inactive)
GI50 [36]: 20.6 µM (inactive)
GI50 [37]: 25.1 µM (inactive)
GI50 [38]: 16.8 µM (inactive)
GI50 [39]: 28 µM (inactive)
GI50 [40]: 36.1 µM (inactive)
GI50 [41]: 35.8 µM (inactive)
GI50 [42]: 23.4 µM (inactive)
GI50 [43]: 15.1 µM (inactive)
GI50 [44]: 14.8 µM (inactive)
GI50 [45]: 31.6 µM (inactive)
GI50 [46]: 13.2 µM (inactive)
GI50 [48]: 12.2 µM (inactive)
GI50 [49]: 17.6 µM (inactive)
GI50 [50]: 21.8 µM (inactive)
GI50 [51]: 16.3 µM (inactive)
GI50 [52]: 18.5 µM
GI50 [53]: 14.1 µM (inactive)
GI50 [54]: 32.2 µM (inactive)
GI50 [55]: 16.2 µM (inactive)
GI50 [57]: 21.9 µM (inactive)
GI50 [58]: 14.8 µM (inactive)

CC(C)(C)[Si](Nc1ccccc1)(c1ccccc1)c1ccccc1
GI50 [1]: 17.5 µM (inactive)
GI50 [2]: 18.4 µM (inactive)
GI50 [3]: 13.5 µM (inactive)
GI50 [4]: 13.9 µM (inactive)
GI50 [5]: 12.2 µM (inactive)
GI50 [6]: 13 µM (inactive)
GI50 [7]: 5.79 µM (inactive)
GI50 [8]: 18.4 µM (inactive)
GI50 [9]: 15.3 µM (inactive)
GI50 [10]: 14 µM (inactive)
GI50 [11]: 15 µM (inactive)
GI50 [12]: 15.3 µM (inactive)
GI50 [13]: 17.7 µM (inactive)
GI50 [59]: 13.6 µM (inactive)
GI50 [15]: 15 µM (inactive)
GI50 [16]: 13.7 µM (inactive)
GI50 [17]: 13.3 µM (inactive)
GI50 [18]: 16.9 µM (inactive)
GI50 [19]: 13.6 µM (inactive)
GI50 [20]: 14.9 µM (inactive)
GI50 [21]: 16 µM (inactive)
GI50 [22]: 14.7 µM (inactive)
GI50 [23]: > 10 µM (inactive)
GI50 [24]: 12.1 µM (inactive)
GI50 [25]: 17.1 µM (inactive)
GI50 [26]: 8.26 µM (inactive)
GI50 [27]: 14.1 µM (inactive)
GI50 [28]: 13.8 µM (inactive)
GI50 [29]: 13.9 µM (inactive)
GI50 [30]: 14.7 µM (inactive)
GI50 [32]: 7.91 µM (inactive)
GI50 [33]: 17.3 µM (inactive)
GI50 [34]: 13.2 µM (inactive)
GI50 [35]: 22.1 µM (inactive)
GI50 [36]: 16 µM (inactive)
GI50 [37]: 15.5 µM (inactive)
GI50 [38]: 10.1 µM (inactive)
GI50 [39]: 14.3 µM (inactive)
GI50 [40]: 14.2 µM (inactive)
GI50 [42]: 17.4 µM (inactive)
GI50 [43]: 16.1 µM (inactive)
GI50 [44]: 16.4 µM (inactive)
GI50 [46]: 13.6 µM (inactive)
GI50 [47]: 13.9 µM (inactive)
GI50 [48]: 14.6 µM (inactive)
GI50 [49]: 16.2 µM (inactive)
GI50 [50]: 16.8 µM (inactive)
GI50 [51]: 10.6 µM (inactive)
GI50 [52]: 15 µM
GI50 [53]: 12.5 µM (inactive)
GI50 [55]: 16.8 µM (inactive)
GI50 [56]: 14.5 µM (inactive)
GI50 [57]: 15.8 µM (inactive)
GI50 [58]: 16.6 µM (inactive)
